We go through seven molecules from patent US5922759A, “Butenolide endothelin antagonists” (Warner-Lambert Company, priority 1997, dated 1999).

Data set [1] deals with basilar artery vasoconstriction. As to conditions: canine two-hemorrhage model, after 7 days; cited from earlier work.
In data set [2] the test system is cerebral vasospasm. To be noted: rat, cited from earlier work.
Data set [3] deals with T1, ETA (rabbit femoral artery) (Oryctolagus cuniculus, UniProt A5A8K3).
T1 construct: Femoral and pulmonary arteries were isolated, cleaned of connective tissue, and cut into 4-mm rings; from tissue; host or cells: endothelium-denuded femoral artery rings of male New Zealand rabbits
T1 sequence (A5A8K3 21-427): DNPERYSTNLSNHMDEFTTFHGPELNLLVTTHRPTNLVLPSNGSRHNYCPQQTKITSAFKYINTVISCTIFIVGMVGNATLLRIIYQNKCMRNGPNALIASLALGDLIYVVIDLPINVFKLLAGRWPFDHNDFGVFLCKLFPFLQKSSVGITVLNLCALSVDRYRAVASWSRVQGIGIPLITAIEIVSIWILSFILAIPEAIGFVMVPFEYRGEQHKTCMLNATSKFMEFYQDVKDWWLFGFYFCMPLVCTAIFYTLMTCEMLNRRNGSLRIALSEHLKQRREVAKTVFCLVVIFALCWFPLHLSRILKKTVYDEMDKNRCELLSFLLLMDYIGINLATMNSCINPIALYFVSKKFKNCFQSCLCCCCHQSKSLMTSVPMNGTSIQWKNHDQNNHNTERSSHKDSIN
As to the kind of experiment: Antagonism of ET-1 stimulated vasoconstriction (VERA-A) in the rabbit femoral artery. To be noted: ET-1 agonist, antagonist added 30 minutes prior. As to the method:
Male New Zealand rabbits were killed by cervical dislocation and exsanguination. Femoral and pulmonary arteries were isolated, cleaned of connective tissue, and cut into 4-mm rings. The endothelium was denuded by placing the rings over hypodermic tubing (32 gauge for femoral rings and 28 gauge for pulmonary rings, Small Parts, Inc, Miami, Fla.) and gently rolling them. […] Resting tension was adjusted to 3.0 g for femoral and 4.0 g pulmonary arteries; the rings were left for 90 minutes to equilibrate.

The target in the next data set is T2, endothelin receptor ETA (Homo sapiens, UniProt P25101).
T2 sequence (P25101 21-427): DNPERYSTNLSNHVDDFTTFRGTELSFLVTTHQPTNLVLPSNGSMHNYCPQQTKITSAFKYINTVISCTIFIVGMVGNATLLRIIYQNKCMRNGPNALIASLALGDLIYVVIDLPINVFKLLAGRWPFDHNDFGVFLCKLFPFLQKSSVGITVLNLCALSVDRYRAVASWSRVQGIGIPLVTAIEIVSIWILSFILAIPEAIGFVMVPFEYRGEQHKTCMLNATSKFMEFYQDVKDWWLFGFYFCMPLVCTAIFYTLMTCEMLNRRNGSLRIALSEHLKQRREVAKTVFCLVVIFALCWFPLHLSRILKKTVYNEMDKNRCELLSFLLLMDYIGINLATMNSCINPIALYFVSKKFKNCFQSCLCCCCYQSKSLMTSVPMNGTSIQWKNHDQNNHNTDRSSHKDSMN
It counts as binding. To be noted: Human cloned receptor data (footnote c); read-out: ERBA-A IC50.

The next data set concerns the target T3, human ETB receptor (Homo sapiens, UniProt P24530).
T3 construct: expressed in transfected cells; host or cells: CHO-K1
T3 sequence (P24530 27-442): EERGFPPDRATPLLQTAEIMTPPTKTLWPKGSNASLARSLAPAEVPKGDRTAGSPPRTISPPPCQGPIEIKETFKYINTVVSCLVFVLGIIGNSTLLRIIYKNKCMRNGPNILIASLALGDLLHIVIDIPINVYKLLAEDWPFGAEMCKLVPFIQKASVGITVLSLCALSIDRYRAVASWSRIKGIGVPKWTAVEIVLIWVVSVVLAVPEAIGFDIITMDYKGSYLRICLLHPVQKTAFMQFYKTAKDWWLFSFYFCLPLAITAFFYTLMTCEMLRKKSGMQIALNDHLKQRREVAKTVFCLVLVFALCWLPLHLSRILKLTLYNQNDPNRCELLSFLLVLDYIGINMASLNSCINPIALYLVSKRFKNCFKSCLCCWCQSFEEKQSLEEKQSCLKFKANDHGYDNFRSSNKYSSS
It counts as binding, human (method text also: rat cerebellar membranes). To be noted: Human cloned receptor data (footnote c); read-out: ERBA-B IC50. An excerpt:
The compounds of Formula I are valuable antagonists of endothelin.
ENDOTHELIN RECEPTOR BINDING ASSAY-B (ERBA-B) [^125 I]-ET-1 BINDING IN RAT CEREBELLAR MEMBRANES
materials and Terms Used:
Count filters for radioactivity in gamma counter.
The above process has also been modified by using human recombinant CHO-K1 cells.
The tissue used for human ETB was recombinant human ETB receptor expressed in CHO-K1 cells (chinese hamster ovary cells). The gene for human ETB receptor was cloned and inserted into the pRc-CMW expression vector, then transfected into CHO-K1 cells by electroporation. For binding assays, membranes (0.7 mg protein) of CHO-K1 cells expressing recombinant human ETB receptor were used.
^c Human cloned receptor data

Data set [4] has as its system cerebral vasospasm. As to conditions: rabbit; cited from earlier work.
A further data set relates to ETA. As to conditions: mouse endotoxic shock; cited from earlier work.
A further data set relates to central nervous system. To be noted: intracerebroventricular, rats; cited from earlier work.
Another data set relates to brain. To be noted: new model of local ischemia in the brain; cited from earlier work.

Like-named read-outs stand apart in the source and are kept apart here. Where a SMILES comes first, the peptide text is derived from it. Where no end group is shown, it is not given here. [ ]: non-standard residue; d: D form.

As to FR 139317, the “inhibition of vasoconstriction of the basilar artery” value in [1] is “significantly inhibited the vasoconstriction of the basilar artery after 7 days”.
For the molecule `COc1cccc(Oc2c(NS(=O)(=O)c3ccc(C(C)(C)C)cc3)ncnc2OCCO)c1` [Ro 46-2005], the “effect on systemic arterial blood pressure” value with cerebral vasospasm [2] (SAH) is on record as “no significant effect on systemic arterial blood pressure”. In the data set with cerebral vasospasm [2], the “effect on early cerebral vasospasm following SAH” value was “prevent early cerebral vasospasm”.
For `COc1ccc(C2(OC(=O)N[C@@H](C)c3ccccc3)OC(=O)C(c3ccc4c(c3)OCO4)=C2Cc2ccccc2)cc1` (stereo partly shown) [Example 1, (1-Phenyl-ethyl)-carbamic acid-4-benzo[1,3]dioxol-5-yl-3-benzyl-2-(4-methoxy-phenyl)-5-oxo-2,5-dihydro-furan-2-yl ester], the “VERA-A pA2” value in data set [3] is 6.1.
`CCOC(=O)CNC(=O)OC1(c2ccc(OC)cc2)OC(=O)C(c2ccc3c(c2)OCO3)=C1Cc1cc(OC)c(OC)c(OC)c1` (stereo not shown) [Example 3, [4-Ben zo[1.3]dioxol-5-yl-2-(4-methoxy-phenyl)-5-oxo-3-(3,4,5-trimethoxy-benzyl)-2,5-dihydro-furan-2-yloxycarbonylamino]-acetic acid ethyl ester]: the results for the 50% inhibitory concentration (IC50) at endothelin receptor ETA and on human ETB receptor were 0.00035 µM and 1.8 µM, respectively. In addition, the Kb in [3] (read-out: VERA-A pA2 (converted)) was 0.0501 µM.
As for `CC(C)C[C@@H]1NC(=O)[C@@H](C(C)C)NC(=O)[C@@H]2CCCN2C(=O)[C@@H](CC(=O)O)NC(=O)[C@@H](Cc2c[nH]c3ccccc23)NC1=O` [BQ-123] (cyclo(L[dW][dD]P[dV])), the “effect on early cerebral vasospasm following SAH” value with cerebral vasospasm [4] and with cerebral vasospasm [2] was “prevents early cerebral vasospasm” in each case. Further, the survival rate entry in the data set on ETA was “significantly increased the survival rate”.
As for “ET-1: a potent vasoconstrictor, is a 21 amino acid bicyclic peptide (CSCSSLMDKECVYFCHLDIIW; ends and bridges not checked; also: bicyclic peptide; UniProt P05305 53-73, looked up)”, in the data set on central nervous system, the behavioral effects entry is listed as “evoke several behavioral effects”. Also, the lesion development result with brain is “induced lesion development”.
Take `COc1ccc(C2(OC(=O)N[C@@H](C)c3cccc4ccccc34)OC(=O)C(c3ccc4c(c3)OCO4)=C2Cc2cc(OC)c(OC)c(OC)c2)cc1` (stereo partly shown) [Example 2, (1-Naphthalen-1-yl-ethyl)-carbamic acid-4-benzo[1,3]dioxol-5-yl-2-(4-methoxy-phenyl)-5-oxo-3-(3,4,5-trimethoxy-benzyl)-2,5-dihydro-furan-2-yl ester]: the IC50 (commonly the concentration at which inhibition is half-maximal) at endothelin receptor ETA was found to be 0.001 µM.
